We go through five substances from patent US10036018B2, “Compositions and methods for treating cachexia” (priority 2014, dated 2018).

In test [1] the test system is TLR7−/− primary myoblasts. In words: Cell viability (cell counter) of TLR7-/- primary myoblasts treated with Dotap formulations of miRNAs. It is filed as cell-based, mice. Particulars: Dotap formulation, 24 h. As to the method:
(§1) FIG. 4A is a graph depicting cell viability assessed with a cell counter for TLR7+/+ and TLR7−/− primary myoblasts that were treated with Dotap formulations of miR-16 and miR-21 for 24 h. As negative control, cells were incubated with Dotap alone. Experiments were performed in quadruplicate. Results are presented as average±SEM. *P≤0.05; **P≤0.01; ***P≤0.001.
(§2) MV Treatment. C2C12 immortalized myoblasts or primary myoblasts isolated from mice were treated with MVs at indicated times. Cell numbers of myoblasts were counted on a hemocytometer.
(§3) Myoblast Isolation and Culture. Primary myoblasts were isolated as previously described (2) and preplated twice, using noncoated tissue culture dishes, and then cultured either on a matrigelcoated 96-well plate for MTS assay reading at indicated times or on a matrigel-coated 12-well plate for protein and RNA analysis.
Mice. Cachexia in the LLC model were induced as previously described (2). TLR7−/− mice were obtained from Jackson Laboratory. Wild-type C57B6 male mice at the same age and weight were used as TLR7+/+ controls. All genotypes were determined by PCR, using tail DNA. All procedures used in this study complied with federal guidelines and the institutional policies of the Ohio State University Animal Care and Use Committee.

A further test has as its system phospho-c-jun. In words: Western blot of treated C2C12 extracts, phospho-c-jun. Particulars: proliferating myoblasts, Western blot time course. It is filed as cell-based, murine. The protocol: (§4) FIG. 9B is an image of a Western blot on extracts of C2C12 cells that had been treated with either LLC-derived MVs (Upper) or synthetic miR-21 (Lower, using miR-16 as control), which were probed with antibodies against phospho-JNK, phospho-c-jun, and phospho-p38 at different times, as indicated.
(§5) Western Blot. Western blots were performed as previously described (2). Antibodies used and their dilutions are listed: p-JNK (Cell Signaling Technology, 1:2,000), p-c-Jun (Cell Signaling Technology, 1:1,000), p-p38 (Cell Signaling Technology, 1:2,000), and vinculin (Abeam, 1:3,000).
On the technique in general: In western blotting, separated proteins are transferred to a membrane and probed.

The subject of another test is phospho-JNK. In words: Western blot of treated C2C12 extracts, phospho-JNK. Particulars: proliferating myoblasts, Western blot time course. It is filed as cell-based, murine. As to the method:
as §4, §5

Another test relates to phospho-p38. As to the kind of experiment: Western blot of treated C2C12 extracts, phospho-p38. It is filed as cell-based, murine. Particulars: proliferating myoblasts, Western blot time course. As to the method: as §4, §5
The test system of test [2] is TLR7+/+ primary myoblasts. In words: Cell viability (cell counter) of TLR7+/+ primary myoblasts treated with Dotap formulations of miRNAs. It is filed as cell-based, mice. Particulars: Dotap formulation, 24 h. As to the method: as §1, §2, §3
In the next test the test system is C2C12 myoblasts. In words: Trypan blue cell death of C2C12 cells treated with cytokines. It is filed as cell-based, murine. Particulars: C2C12, 24 h, cytokines at 5 ng/mL. As to the method:
FIG. 5C is a graph depicting cell death assessed by trypan blue dye staining performed on C2C12 cells that were treated for 24 h with individual cytokines or a mixture (Cocktail) of IL-1, IL-6, TNFα, and IFNγ (all at 5 ng/mL). As a negative control, cells were treated with serum-free medium.
Trypan Blue Staining. Trypan blue dye was purchased from Gibco (15250-061), and staining was performed following the manufacturer's protocol. Dead cells are blue in color under the microscope and were counted using a hemocytometer.

With UAGCUUAUCAGACUGAUGUUGA [miR-21], the “cell death on exogenous addition of miRNA” value in test [1] is “significantly blunted”; in test [1] (listed as miR21), “does not completely rescue”; in test [2], “induced pronounced cell death”. In the test with phospho-c-jun, the c-JUN activation result is on record as “transiently induced”. Besides, the JNK activation entry with phospho-JNK is given as “transiently induced”. In addition, the p38 activity result in the test on phospho-p38 is listed as “no significant change”.
For TNFα, the “effect on the viability of proliferating murine C2C12 myoblasts” value (shortened to “effect on the viability”) with C2C12 myoblasts is recorded as “little or no effect”.
On to IFN-γ: proinflammatory cytokine, for which the “effect on the viability” value with C2C12 myoblasts is recorded as “little or no effect”.
For the substance IL-1β: proinflammatory cytokine, in the test on C2C12 myoblasts, the “effect on the viability” value is listed as “little or no effect”.
On the same count and under the same terms, in the case of IL-6: proinflammatory cytokine it was “little or no effect”.
